Test results taken from publication PMC6544120, “Stimuli-responsive membrane activity of cyclic-peptide–polymer conjugates” (Chemical Science, 2019).

Assay: Calcein dye leakage assay
Type: biochemical
Conditions: pure DTT 30 mM without CPNT
Experimental: This was tested by studying the interaction of our CPNT with synthetic liposomes. A mixture of phosphatidylethanolamine and phosphatidylglycerol was used to simulate the cytosolic membrane of E. coli.[35] Vesicles were loaded with self-quenching concentrations of a fluorescent dye (calcein). This allows to detect disruption of the bilayer, as dye release from the liposomes and the resulting dilution leads to an increase in fluorescence (Scheme S4 ^†).
The fit (Figure S25) was performed with R, Rg, N agg, l and N as adjustable parameter.
Table S2. Fitting parameters for 24 using a form factor of a micelle with a spherical core […]
Rg, corona b 16.6 Å parameters
Vcore (single unit) c 300 Å3 […]
Background subtracted 5 × 10 -2 cm-1 a The radius of the core was calculated from the volume of the whole core given by the volume of the core of a single unit multiplied with the number of aggregation (N agg); b Radius of gyration (R g) of a single chain in the corona; c The Volume of a single cyclic peptide in the core or polymer corona (PEtOx) was estimated from the Mn, divided by the Avogadro constant and assuming a density of 1 g/cm 3, d The scattering lengths density (SLD) of the materials was calculated using the calculator given in SASfit; […]
Formation of vesicles. […]

O[C@@H](CS)[C@@H](O)CS (racemic) [DTT, 1,4-dithiothreitol]
Effect of DTT alone on fluorescence intensity (calcein release): no effect on the fluorescence intensity
